± gives the standard deviation of the averaged measurements.
Legend:
Assay in all cases: level (log10 ratio to DMSO vehicle control); higher = higher biomarker level / cell amount than vehicle control
[1] = compound: C=C(C)C(=O)OCCC(F)(F)C(F)(F)C(F)(F)C(F)(F)C(F)(F)C(F)(F)F [6:2 Fluorotelomer methacrylate]; conditions: in DMSO
Procedure: (§1)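 BioMAP Diversity Plus panel of 12 human primary cell co-culture systems (3C, 4H, LPS, SAg, BT, BF4T, BE3C, CASM3C, HDF3CGF, KF3CT, MyoF, Mphg). Compounds were added 1 h before stimulation and left for 24 h (MyoF 48 h; BT 72 h for soluble read-outs or 6 d for IgG). Biomarkers were read by ELISA, cytotoxicity by SRB, PBMC viability and proliferation by Alamar Blue. Each well value was divided by the mean of 8 DMSO control wells on the same plate and log10 transformed; duplicate blinded samples were tested at 4 concentrations.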

[2] = compound: C=CC(=O)OCC(F)(F)C(F)(F)C(F)(F)COC(=O)C=C [1H,1H,5H,5H-Perfluoro-1,5-pentanediol diacrylate]; conditions: 6700 nM; in DMSO
Procedure: as §1

[3] = compound: COC(=O)C(F)(F)C(F)(F)OC(F)(C(F)(F)F)C(F)(F)OC(F)=C(F)F [Methyl perfluoro(3-(1-ethenyloxypropan-2-yloxy)propanoate)]; conditions: in DMSO
Procedure: as §1

[4] = compound: FC(F)(F)C(F)(F)C(F)(F)C(F)(F)C(F)(F)C(F)(F)C(F)(F)I [1-Iodopentadecafluoroheptane]; conditions: in DMSO
Procedure: as §1

Heptafluorobutyl iodide = compound: FC(F)(F)C(F)(F)C(F)(F)CI [Heptafluorobutyl iodide]; conditions: in DMSO
Procedure: as §1

[5] = compound: O=C(O)C(F)(F)C(F)(F)C(F)(F)C(F)(F)C(F)(F)C(F)(F)C(F)(F)C(F)(F)C(F)(F)C(F)F [11-H-Perfluoroundecanoic acid]; conditions: in DMSO
Procedure: as §1

[6] = compound: O=C(O)C=CC(F)(C(F)(F)F)C(F)(F)F [3-(Perfluoroisopropyl)-2-propenoic acid]; conditions: in DMSO
Procedure: as §1

[7] = compound: O=S(=O)(O)C(F)(F)C(F)(F)C(F)(F)C(F)(F)C(F)(F)C(F)(F)C(F)(F)C(F)(F)C(F)(F)C(F)(F)F [Sodium perfluorodecanesulfonate]; conditions: in DMSO
Procedure: as §1

Test System	level (log10) ([1]; 6700 nM)	level (log10) ([1]; 20000 nM)	level (log10) ([1]; 60000 nM)	level (log10) [2]	level (log10) ([3]; 6700 nM)	level (log10) ([3]; 20000 nM)	level (log10) ([4]; 6700 nM)	level (log10) ([4]; 20000 nM)	level (log10) (Heptafluorobutyl iodide; 6700 nM)	level (log10) (Heptafluorobutyl iodide; 20000 nM)	level (log10) (Heptafluorobutyl iodide; 60000 nM)	level (log10) ([5]; 6700 nM)	level (log10) ([5]; 20000 nM)	level (log10) ([6]; 6700 nM)	level (log10) ([6]; 20000 nM)	level (log10) ([6]; 60000 nM)	level (log10) ([7]; 1500 nM)	level (log10) ([7]; 4400 nM)	level (log10) ([7]; 13000 nM)	level (log10) ([7]; 40000 nM)
MyoF:SRB	-0.0025 ± 0.0092	-0.0015 ± 0.005	0.0085 ± 0.012	-0.0205 ± 0.0035	0.004 ± 0.0042	0.018 ± 0.0099	-0.0135 ± 0.00071	-0.131 ± 0.012	0.002 ± 0.0028	-0.0015 ± 0.0021	0.0075 ± 0.011	-0.001 ± 0.0014	-0.086 ± 0.0028	-0.005 ± 0.0014	-0.0085 ± 0.0035	0 ± 0.018	0.0205 ± 0.016	0.029 ± 0.0042	0.0115 ± 0.012	-0.018 ± 0.0085
MyoF:TIMP-1	-0.036 ± 0.062	-0.0135 ± 0.066	-0.017 ± 0.041	-0.002 ± 0.0014	0.018 ± 0.011	0.0085 ± 0.039	0.049 ± 0.0057	-0.0605 ± 0.0092	-0.059 ± 0.088	-0.068 ± 0.068	-0.0755 ± 0.063	0.0255 ± 0.029	0.063 ± 0.0057	-0.0285 ± 0.00071	-0.0085 ± 0.013	0.0535 ± 0.037	-0.037 ± 0.014	-0.0445 ± 0.016	-0.0415 ± 0.04	-0.0725 ± 0.044
MyoF:alpha-SM Actin	0.003 ± 0.011	-0.02 ± 0.038	-0.0015 ± 0.018	-0.208 ± 0.024	-0.023 ± 0.021	-0.043 ± 0.047	-0.115 ± 0.016	-0.291 ± 0.045	0.018 ± 0.0085	0.026 ± 0.054	0.0225 ± 0.032	-0.044 ± 0.033	-0.11 ± 0.033	0.0065 ± 0.021	0 ± 0.054	0.0245 ± 0.011	0.01 ± 0.0057	-0.0065 ± 0.013	0.006 ± 0.025	0.0175 ± 0.0021
MyoF:bFGF	-0.0025 ± 0.0064	-0.0115 ± 0.018	-0.0085 ± 0.011	0.0025 ± 0.005	0.016 ± 0.0099	0.037 ± 0.021	0.0165 ± 0.016	-0.0075 ± 0.015	0.0115 ± 0.019	0.01 ± 0.0028	0.0115 ± 0.005	0.006 ± 0.0099	0.005	0 ± 0.0028	0.006 ± 0.027	0.006 ± 0.017	0.0025 ± 0.005	0.033	0.015 ± 0.0057	0.023 ± 0.011
lMphg:CCL3/MIP-1alpha	0.0005 ± 0.066	-0.0185 ± 0.061	0.003 ± 0.04	-0.008 ± 0.0057	0.032 ± 0.031	0.0655 ± 0.026	0.0225 ± 0.023	0.0175 ± 0.049	0.023 ± 0.079	0.0315 ± 0.11	0.06 ± 0.045	-0.023 ± 0.023	-0.027 ± 0.0057	-0.031 ± 0.018	-0.0285 ± 0.016	-0.0125 ± 0.016	-0.008 ± 0.025	0.0015 ± 0.012	0.0195 ± 0.047	0.0425 ± 0.0035
lMphg:CD62E/E-Selectin	-0.0005 ± 0.015	-0.003 ± 0.048	-0.0135 ± 0.011	-0.0595 ± 0.00071	0.011 ± 0.052	0.018 ± 0.027	0.016 ± 0.014	0.0355 ± 0.0078	-0.0065 ± 0.011	-0.0065 ± 0.005	0.0085 ± 0.019	-0.025 ± 0.023	-0.028 ± 0.034	-0.0045 ± 0.012	-0.002 ± 0.0099	0.0205 ± 0.0035	-0.011 ± 0.0014	-0.0265 ± 0.028	0.0135 ± 0.018	0.0205 ± 0.021

From the supplement of paper PMC10331698
